Calls of active or inactive are those of the source. The calls are words filed in the database; no cut-off is given here.
Legend:
[1] = tested on: 3T3-L1; assay: Downregulation of ACC-1 gene expression in mouse 3T3L1 cells at […] after 4 days by RT-PCR analysis relative to untreated control; format: functional
[2] = tested on: 3T3-L1; assay: Upregulation of CPT-1 gene expression in mouse 3T3L1 cells at […] after 4 days by RT-PCR analysis relative to untreated control; format: functional, cell-based
[3] = tested on: 3T3-L1; assay: Upregulation of PGC-1 gene expression in mouse 3T3L1 cells at […] after 4 days by RT-PCR analysis relative to control; format: functional, cell-based
[4] = tested on: 3T3-L1; assay: Upregulation of CPT-1 gene expression in mouse 3T3L1 cells at […] after 4 days by RT-PCR analysis relative to insulin; format: functional
[5] = tested on: 3T3-L1; assay: Downregulation of ACC-1 gene expression in mouse 3T3L1 cells at […] after 4 days by RT-PCR analysis relative to insulin; format: functional
[6] = tested on: 3T3-L1; assay: Downregulation of CPT-1 gene expression in mouse 3T3L1 cells at […] after 4 days by RT-PCR analysis; format: functional, cell-based

SMILES | Activity [1] | Activity [2] | Activity [3] | fold change (FC) [4] | fold change (FC) [5] | Activity [6] | fold change (FC) [1] | Activity [4]
CCCCCNC(=S)N/N=C\c1ccc(OCc2cn(Cc3ccccc3)nn2)cc1 | Active | Active | Active | 2 |  |  |  | 
CCCCCCCCNC(=S)N/N=C\c1ccc(OCc2cn(Cc3ccccc3)nn2)cc1 |  |  | Active |  | 4 | Active | 4 | 
S=C(NCCc1ccccc1)N/N=C\c1ccc(OCc2cn(Cc3ccccc3)nn2)cc1 |  | Active | Active |  | 2 |  | 2 | Active
CC(C)CNC(=S)N/N=C\c1ccc(OCc2cn(Cc3ccccc3)nn2)cc1 |  | Active | Active | 5 | 2 |  | 2 | 
CN(C)CCNC(=S)N/N=C\c1ccc(OCc2cn(Cc3ccccc3)nn2)cc1 |  | Active | inactive | 3 | 2 |  | 2 | 
OCCCCCCNC(=S)N/N=C\c1ccc(OCc2cn(Cc3ccccc3)nn2)cc1 | Active | Active | Active |  |  |  |  | Active
OCCNC(=S)N/N=C\c1ccc(OCc2cn(Cc3ccccc3)nn2)cc1 | inactive |  | inactive |  |  | Active |  | 

— ChEMBL document CHEMBL2424633, “Evaluation of the Influence of thiosemicarbazone-triazole hybrids on genes implicated in lipid oxidation and accumulation as potential anti-obesity agents” (2013)
